# Test results taken from patent publication US20100034762A1, “Novel enrichment methods for gallic acid esters including 1-O-galloy1-bata-D-glucose and mucic acid gallates medicaments, therapeutic applications and methods of treatment thereof” (priority 2008, published 2010).
# Experiments:
# [1] = Oxygen Radical Absorbance Capacity (ORAC); conditions: Trolox equivalents
# [2] = DPPH scavenging
DPPH IC50 [2] [µg/mL],Structure (SMILES),ORAC (μmol TE/gm) [1] [μmol TE/gm]
0.32,"O=C(O)c1cc(O)c(O)c(O)c1 [Gallic acid, gallic acid]",6712
1.93,"O=C1O[C@H]([C@@H](O)CO)C(O)=C1O [Vitamin C, Ascorbic acid]",3400
